Measured values as given in patent US12364672B2, “Esketamine for use in treating major depressive disorder” (priority 2018, dated 2025).

How the values were obtained:
[1] = test system: human peripheral blood lymphocytes (HPBL)
Experimental: Toxicity (defined as ≥45% reduction in MI relative to the vehicle control) was evaluated at 9 concentrations, ranging from 0.0238 to 238 μg/ml, after exposure of HPBL to esketamine for 20 hours in the absence of S9 activation, or for 4 hours, either in the presence or absence of S9 activation, followed by a 16-hour recovery period.
The definitive chromosome aberration assay evaluated HPBL cells after exposure to esketamine for 20 hours in the absence of S9 activation, or for 4 hours, either in the presence of absence of S9 activation, followed by a 16-hour recovery. Positive controls for chromosomal aberrations in non-activated and S9-activated evaluations, respectively, consisted of mitomycin C (MMC, 0.6 and 0.3 μg/mL for the 4- and 20-hour exposures, respectively) and cyclophosphamide (CP, 2.5, 5, and 7.5 μg/mL). […] Initially, the doses selected for evaluation of chromosomal aberrations were 60, 120, and 238 μg/mL for the non-activated 4- and 20-hour treatment conditions; and 30, 60, and 200 μg/mL for the S9-activated 4-hour treatment condition.

C57Bl/6 strain mice [2] = assay: Tail suspension test, single dose; type: in vivo, mouse; conditions: TST after 30 minutes
Experimental: Ketamine and esketamine HCl solutions at dose levels of 7.5, 15 and 30 mg/kg were administered intraperitoneally (ip) to groups of 10 inbred C57Bl/6 strain mice. After 30 minutes animals were exposed to the tail suspension test (TST).

C57Bl/6 strain mice [3] = assay: Tail suspension test, 7-day administration; type: in vivo, mouse
Experimental: Esketamine HCl solutions were administered intraperitoneally (ip) to 8 groups of 10 inbred C57Bl/6 strain mice divided to receive one of the following dose levels for 7 days:
1. saline 10 ml/kg ip once prior to TST
2. esketamine 15 mg/kg ip once on day 7 prior to TST
3. esketamine 30 mg/kg ip once on day 7 prior to TST
4. saline 10 ml/kg ip daily for 7-days
5. esketamine 7.5 mg/kg ip daily for 7-days
6. esketamine 15 mg/kg ip daily for 7-days
7. esketamine 30 mg/kg ip once on day 1+saline daily for 6 more days
8. esketamine 30 mg/kg ip once on day 1+esketamine 7.5 mg/kg for 6 more days.
30 minutes after the last treatment, the animals were exposed to the tail suspension test (TST).

[4] = test system: healthy male and female subjects; assay: Single dose crossover study in healthy volunteers, treatment-emergent adverse events; type: in vivo, human; conditions: all treatments
Source text: A total of 128 TEAEs (treatment-emergent adverse event) were reported by 15 of 16 (94%) subjects of which 79 TEAEs reported by 14 of 16 (88%) subjects were to be related to the study drug. Overall, a total of 14 of 128 TEAEs reported by 4 (25%) subjects were of moderate severity and 114 of 128 TEAEs reported by 15 (94%) subjects were of mild severity. […] The most frequently occurring adverse events (reported more than twice) were headache, dizziness, hypokinesia, feeling abnormal, fatigue, euphoric mood inappropriate affect, nausea and hyperhidrosis. Table 4 presents the frequency of the most frequently reported related TEAEs as a percentage of the subjects that experienced an adverse effect per treatment.

liver of Crl:CD(SD) rats = assay: In vivo single cell gel electrophoresis (comet) assay, liver; conditions: some male animals given 75 mg/kg/day
[5] = test system: human peripheral blood lymphocytes (HPBL); remark: listed apart in the source

Row | Structure (SMILES) | Toxicity (≥45% reduction in MI relative to the vehicle control) [1] | cytotoxicity (45% reduction in mitotic index relative to the vehicle control) ([1]; definitive assay, non-activated 4- and 20-hour treatment, any dose (30 to 238 μg/ml)) | reduction of immobility time from the saline control group (C57Bl/6 strain mice [2]; 7.5 mg/kg ip) | reduction of immobility time from the saline control group (C57Bl/6 strain mice [2]; 15 mg/kg ip) | reduction of immobility time from the saline control group (C57Bl/6 strain mice [2]; 30 mg/kg ip) | efficacy in the TST vs 7-day saline control group (C57Bl/6 strain mice [3]; 7.5 mg/kg ip daily for 7 days (Group 5)) | decrease in immobility time (C57Bl/6 strain mice [3]; 15 mg/kg ip daily for 7 days (Group 6), not statistically significant) | decrease in immobility time (C57Bl/6 strain mice [3]; 15 mg/kg ip once, acute (printed Group 3), p<0.007) | effect on time spent in immobility (C57Bl/6 strain mice [3]; 30 mg/kg ip once on day 1 + 7.5 mg/kg for 6 more days (Group 8) vs Group 7, p=0.02) | immobility time 7 days after a single injection (C57Bl/6 strain mice [3]; 30 mg/kg ip once on day 1 + saline for 6 more days (Group 7)) | severe TEAEs or SAEs [4] | liver histopathology (liver of Crl:CD(SD) rats) | Toxicity (mitotic index) [5]
1 | CN[C@]1(c2ccccc2Cl)CCCCC1=O [esketamine, (2S)-2-(2-Chlorophenyl)-2-(methylamino) cyclohexanone] | not observed | not observed | 27.0% | 43.6% | 58.1% | did not exert any efficacy | ~35% | 38.9% | 53.4% | no decline in immobility time | No severe TEAEs or SAEs | Increased hepatocellular mitotic figures | –
2 | CNC1(c2ccccc2Cl)CCCCC1=O (stereo not drawn) [ketamine, dl 2-(2-chlorophenyl)-2(methylamino) cyclohexanone] | – | – | – | – | 71.2% | – | – | – | – | – | – | – | –
3 | N[C@]1(c2ccccc2Cl)CCCCC1=O [(S)-norketamine, (2S)-2-(2-Chlorophenyl)-2-(amino) cyclohexanone] | – | – | – | – | – | – | – | – | – | – | – | – | not observed
